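Where inhibition never reached the appropriate level, the endpoint shown equals the highest concentration tested. Otherwise, values were interpolated linearly from a five-concentration, 48-hour dose response in 96-well plates. Here, GI50 denotes the concentration required for 50% inhibition of growth. TGI marks complete inhibition of growth.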
Experiments:
Test in all cases: NCI anticancer screen, dose series, 48 h
HCC-2998 colon = system: HCC-2998 colon
MCF7 breast = system: MCF7 breast
CAKI-1 renal = system: CAKI-1 renal
RPMI-8226 leukemia = system: RPMI-8226 leukemia
MALME-3M melanoma = system: MALME-3M melanoma
MDA-MB-435 = system: MDA-MB-435
NCI-H226 lung = system: NCI-H226 lung
BT-549 breast = system: BT-549 breast
SK-MEL-5 melanoma = system: SK-MEL-5 melanoma
HOP-92 NSCLC = system: HOP-92 NSCLC
SW-620 colon = system: SW-620 colon
SK-MEL-2 melanoma = system: SK-MEL-2 melanoma
SR leukemia = system: SR leukemia
SK-MEL-28 melanoma = system: SK-MEL-28 melanoma
NCI-H23 lung = system: NCI-H23 lung
786-0 renal = system: 786-0 renal
UACC-62 melanoma = system: UACC-62 melanoma
MDA-MB-231 breast = system: MDA-MB-231 breast
LOX IMVI melanoma = system: LOX IMVI melanoma
K-562 leukemia = system: K-562 leukemia
COLO 205 colon = system: COLO 205 colon
KM12 colon = system: KM12 colon
HS 578T breast = system: HS 578T breast
SNB-75 CNS = system: SNB-75 CNS
OVCAR-5 ovarian = system: OVCAR-5 ovarian
SF-268 CNS = system: SF-268 CNS
IGROV1 ovarian = system: IGROV1 ovarian
HCT-15 colon = system: HCT-15 colon
EKVX NSCLC = system: EKVX NSCLC
HCT-116 colon = system: HCT-116 colon
HT29 colon = system: HT29 colon
UO-31 renal = system: UO-31 renal
PC-3 prostate = system: PC-3 prostate
MDA-MB-468 breast = system: MDA-MB-468 breast
UACC-257 melanoma = system: UACC-257 melanoma
OVCAR-8 ovarian = system: OVCAR-8 ovarian
NCI-H522 lung = system: NCI-H522 lung
HL-60(TB) leukemia = system: HL-60(TB) leukemia
A498 renal = system: A498 renal
T-47D breast = system: T-47D breast
M14 melanoma = system: M14 melanoma
NCI/ADR-RES ovarian = system: NCI/ADR-RES ovarian
HOP-62 NSCLC = system: HOP-62 NSCLC
ACHN renal = system: ACHN renal
RXF 393 renal = system: RXF 393 renal
SF-295 CNS = system: SF-295 CNS
SNB-19 CNS = system: SNB-19 CNS
OVCAR-4 ovarian = system: OVCAR-4 ovarian
U251 CNS = system: U251 CNS
NCI-H460 lung = system: NCI-H460 lung
TK-10 renal = system: TK-10 renal
OVCAR-3 ovarian = system: OVCAR-3 ovarian
SF-539 CNS = system: SF-539 CNS
SK-OV-3 ovarian = system: SK-OV-3 ovarian
CCRF-CEM leukemia = system: CCRF-CEM leukemia
DU-145 prostate = system: DU-145 prostate
MOLT-4 leukemia = system: MOLT-4 leukemia
SN12C renal = system: SN12C renal
A549 NSCLC = system: A549 NSCLC

C/C(=N\N=C1/C(=O)Nc2ccc(Cl)cc21)c1ccc2c(c1)Nc1ccccc1S2
GI50 (HCC-2998 colon): 7.54 µM
TGI (HCC-2998 colon): 22.5 µM
GI50 (MCF7 breast): 3.33 µM
TGI (MCF7 breast): 13.5 µM
GI50 (CAKI-1 renal): 4.42 µM
TGI (CAKI-1 renal): 17.9 µM
GI50 (RPMI-8226 leukemia): 5.86 µM
TGI (RPMI-8226 leukemia): 99.6 µM
GI50 (MALME-3M melanoma): 7.44 µM
TGI (MALME-3M melanoma): 21.5 µM
GI50 (MDA-MB-435): 3.27 µM
TGI (MDA-MB-435): 15.5 µM
GI50 (NCI-H226 lung): 3.49 µM
TGI (NCI-H226 lung): 19.7 µM
GI50 (BT-549 breast): 3.47 µM
TGI (BT-549 breast): 12.3 µM
GI50 (SK-MEL-5 melanoma): 3.8 µM
TGI (SK-MEL-5 melanoma): 14.4 µM
GI50 (HOP-92 NSCLC): 2.92 µM
TGI (HOP-92 NSCLC): 11.3 µM
GI50 (SW-620 colon): 5.56 µM
TGI (SW-620 colon): 20.1 µM
GI50 (SK-MEL-2 melanoma): 6.77 µM
TGI (SK-MEL-2 melanoma): 20.8 µM
GI50 (SR leukemia): 4.4 µM
TGI (SR leukemia): 56.8 µM
GI50 (SK-MEL-28 melanoma): 6.23 µM
TGI (SK-MEL-28 melanoma): 22.8 µM
GI50 (NCI-H23 lung): 7.3 µM
TGI (NCI-H23 lung): 21.7 µM
GI50 (786-0 renal): 2.4 µM
TGI (786-0 renal): 5.86 µM
GI50 (UACC-62 melanoma): 4.2 µM
TGI (UACC-62 melanoma): 17.1 µM
GI50 (MDA-MB-231 breast): 8.23 µM
TGI (MDA-MB-231 breast): 21.9 µM
GI50 (LOX IMVI melanoma): 5.77 µM
TGI (LOX IMVI melanoma): 18.7 µM
GI50 (K-562 leukemia): 4.14 µM
TGI (K-562 leukemia): > 100 µM
GI50 (COLO 205 colon): 4.84 µM
TGI (COLO 205 colon): 17.2 µM
GI50 (KM12 colon): 3.51 µM
TGI (KM12 colon): 14.1 µM
GI50 (HS 578T breast): 6.86 µM
TGI (HS 578T breast): 41.1 µM
GI50 (SNB-75 CNS): 4.28 µM
TGI (SNB-75 CNS): 19.4 µM
GI50 (OVCAR-5 ovarian): 10.1 µM
TGI (OVCAR-5 ovarian): 26.2 µM
GI50 (SF-268 CNS): 8.19 µM
TGI (SF-268 CNS): 26.5 µM
GI50 (IGROV1 ovarian): 5.62 µM
TGI (IGROV1 ovarian): 23.1 µM
GI50 (HCT-15 colon): 6.61 µM
TGI (HCT-15 colon): 24 µM
GI50 (EKVX NSCLC): 4.68 µM
TGI (EKVX NSCLC): 22.9 µM
GI50 (HCT-116 colon): 4.6 µM
TGI (HCT-116 colon): 19 µM
GI50 (HT29 colon): 4.54 µM
TGI (HT29 colon): 17.6 µM
GI50 (UO-31 renal): 4.05 µM
TGI (UO-31 renal): 19.6 µM
GI50 (PC-3 prostate): 3.14 µM
TGI (PC-3 prostate): 16.3 µM
GI50 (MDA-MB-468 breast): 1.8 µM
TGI (MDA-MB-468 breast): 7.31 µM
GI50 (UACC-257 melanoma): 4.07 µM
TGI (UACC-257 melanoma): 18.1 µM
GI50 (OVCAR-8 ovarian): 4.2 µM
TGI (OVCAR-8 ovarian): 17.9 µM
GI50 (NCI-H522 lung): 3.22 µM
TGI (NCI-H522 lung): 15.3 µM
GI50 (HL-60(TB) leukemia): 6.21 µM
TGI (HL-60(TB) leukemia): > 100 µM
GI50 (A498 renal): 5.89 µM
TGI (A498 renal): 18.7 µM
GI50 (T-47D breast): 2.54 µM
TGI (T-47D breast): 12.8 µM
GI50 (M14 melanoma): 7.35 µM
TGI (M14 melanoma): 23.3 µM
GI50 (NCI/ADR-RES ovarian): 4.74 µM
TGI (NCI/ADR-RES ovarian): 24.6 µM
GI50 (HOP-62 NSCLC): 12.5 µM
TGI (HOP-62 NSCLC): 27.8 µM
GI50 (ACHN renal): 3.55 µM
TGI (ACHN renal): 14.1 µM
GI50 (RXF 393 renal): 5.05 µM
TGI (RXF 393 renal): 19 µM
GI50 (SF-295 CNS): 4.08 µM
TGI (SF-295 CNS): 17 µM
GI50 (SNB-19 CNS): 11.9 µM
TGI (SNB-19 CNS): 33.1 µM
GI50 (OVCAR-4 ovarian): 4.67 µM
TGI (OVCAR-4 ovarian): 22.5 µM
GI50 (U251 CNS): 5.62 µM
TGI (U251 CNS): 18.4 µM
GI50 (NCI-H460 lung): 3.17 µM
TGI (NCI-H460 lung): 10.3 µM
GI50 (TK-10 renal): 7.07 µM
TGI (TK-10 renal): 23.7 µM
GI50 (OVCAR-3 ovarian): 10.2 µM
TGI (OVCAR-3 ovarian): 23.4 µM
GI50 (SF-539 CNS): 6.83 µM
TGI (SF-539 CNS): 19.8 µM
GI50 (SK-OV-3 ovarian): 11.9 µM
TGI (SK-OV-3 ovarian): 30.7 µM
GI50 (CCRF-CEM leukemia): 3.42 µM
TGI (CCRF-CEM leukemia): 98.5 µM
GI50 (DU-145 prostate): 4.64 µM
TGI (DU-145 prostate): 18 µM
GI50 (MOLT-4 leukemia): 2.71 µM
TGI (MOLT-4 leukemia): 8.28 µM
GI50 (SN12C renal): 4.47 µM
TGI (SN12C renal): 16.8 µM
GI50 (A549 NSCLC): 4.21 µM
TGI (A549 NSCLC): 17.8 µM
